MIC data for 2 compounds are collected here from US4981954A, “Novel azoxy compounds and process for production thereof” (Kowa Company, Ltd., priority 1987, dated 1991).

Common to all, as to type: cell-based
The test system of one assay is Candida albicans. Description: Antifungal activity, minimum growth inhibition concentration (MIC), Candida albicans. The settings on record: Sabouraud dextrose agar, 27° C., 2 to 4 days. The procedure: (§1) The minimum growth inhibition concentrations (MIC) of the present substances against eumycetes are as tabulated below.
(§2) Culture medium: Sabouraud dextrose agar
(§3) Culturing conditions: 27° C., 2 to 4 days

The test system of a further assay is Aspergillus fumigatus. Description: Antifungal activity, minimum growth inhibition concentration (MIC), Aspergillus fumigatus. To be noted: Sabouraud dextrose agar, 27° C., 2 to 4 days. As for the experimental part:
as §1, §2, §3

In the next assay the test system is Cryptococcus neoformans. Kind of assay: Antifungal activity, minimum growth inhibition concentration (MIC), Cryptococcus neoformans. To be noted: Sabouraud dextrose agar, 27° C., 2 to 4 days. As for the experimental part: as §1, §2, §3
For assay [1], the system named is Trichophyton mentagraphytes. Kind of assay: Antifungal activity, minimum growth inhibition concentration (MIC), Trichophyton mentagraphytes. The procedure: as §1, §2, §3
A further assay deals with Trichophyton rubrum. Kind of assay: Antifungal activity, minimum growth inhibition concentration (MIC), Trichophyton rubrum. The settings on record: Sabouraud dextrose agar, 27° C., 2 to 4 days. The procedure: as §1, §2, §3

Converted amounts (≈) assume the structure as drawn.

Broadly, the MIC is the lowest concentration found to suppress growth. Low readings indicate inhibition by little substance, high ones a need for much substance. As for `CCCCC=C[N+]([O-])=NC(C)C(C)=O` (stereo not shown) [KA-7367A], the MIC in the assay with Candida albicans stood at 1.6 µg/mL (≈ 8.07 µM); with Aspergillus fumigatus, 6.25 µg/mL (≈ 31.5 µM); with Cryptococcus neoformans it was 3.2 µg/mL (≈ 16.1 µM); in assay [1], 6.25 µg/mL (≈ 31.5 µM); against Trichophyton rubrum, 3.2 µg/mL (≈ 16.1 µM).

For the compound `CCCCC=C[N+]([O-])=NC(C)C(C)O` (stereo not shown) [KA-7367B], the MIC turned out to be 50 µg/mL (≈ 250 µM) against Candida albicans; 100 µg/mL (≈ 499 µM) against Aspergillus fumigatus; 100 µg/mL (≈ 499 µM) in the assay with Cryptococcus neoformans; 100 µg/mL (≈ 499 µM) in assay [1]; 100 µg/mL (≈ 499 µM) against Trichophyton rubrum.
